The source of these data is patent EP0123446A1, “2-Furylbutyrolactone derivatives, their preparation, compositions containing them, and their use for the modulation of the immune system in mammals” (NATIONAL FOUNDATION FOR CANCER RESEARCH, INC., priority 1983, dated 1984).

For assay [1], the system named is L-1210 leukaemia cells. The assay can be described thus: L-1210 leukaemia anti-cancer study (NCI protocol), BDF1 mice. The assay is classed as in vivo. The note with it: 20 mg/kg, seven days, Table 25. The text has this:
Mice of the BDF1 strain were given an i.p. inoculation of 10^6 L-1210 leukaemia cells on day 0. Twenty-four hours later, groups of 7 mice each were started on a […] treatment regimen of various doses of the compounds of this invention. The experiment was continued according to the guidelines provided under the National Cancer Institute protocol for screening new anti-cancer agents; T/C ratios (median or mean survival time of treated groups over median or mean survival time of controls) were calculated. A T/C value > 1.25 (or 125%) is considered to indicate significant anticancer activity.
Mice of the BDF1 strain, inoculated with L-1210 leukaemia cells, were treated for seven days with either 25, 50, 100, 200 or 400 mg/kg of Cpd. 1 or just buffer. The National Cancer Institute protocol for screening new anti-cancer agents was followed and T/C ratios were calculated.
Mice of the BDFI strain, inoculated with L-1210 leukaemia cells, were treated for seven days with either 100 mg/kg of Cpd. 1, 20 mg/kg of 5-fluorouracil (5-FU), a known anti-cancer agent, or just buffer. The National Cancer Institute protocol for screening new anti-cancer agents was followed and T/C ratios are calculated.

The test system of assay [2] is spleen lymphocytes. In words: Lymphocyte stimulation assay after in vivo treatment, C57BL/6 mice. As to conditions: for Lymphocyte Stimulation Index Con-A / Lymphocyte Stimulation Index Control / Lymphocyte Stimulation Index PHA: C57BL/6, Table 3-A. The protocol:
(§1) The purpose of this assay is to challange lymphocytes in microcultures with one or more polyclonal mitogens at concentrations that will induce mitogenesis within 72 hours of stimulation.
(§2) In the mouse model, spleens were removed from different strains of mice and the spleen cells were teased free and suspended in RPMI-1640 tissue culture medium at a concentration of usually 1 x 10^7 ml. These cells were dispensed at a concentration of […] cells per microculture well in a 96 well flat bottom tissue culture plate. All testing of the compounds of this invention or mitogens were done in replicates of 10. The cells were then treated with PHA. Con-A, specific antigens, or buffer only. Where in vitro testing was done, varying concentrations of the compounds of this invention or buffer only were added to the cells as well. After treatment with the mitogens and/or compounds of this invention, the cells were incubated for 72 hours. The response of these cells to mitogens and/or the compounds of this invention was assessed using 14 C-thymidine labeling on the fourth day at a concentration of 0.01 microCi/well. The labeled cells were harvested using a lymphocyte harvestor and placed onto fibrous paper discs. A scintillation cocktail was added to vials containing the discs and the results were obtained using a LKB-liquid scintillation counter (Model 1216/Rackbeta II). The data is expressed as a ratio of the cpm (counts per minute) of the mitogen stimulated group to the control (non-mitogen) treated group = lymphocyte stimulation index (LSI).
(§3) The lymphocyte stimulation assay may be performed directly on spleen cells obtained from various strains of mice not treated with the compounds of this invention or on lymphocytes obtained from human plasma. In such experiments, the compounds of this invention were added directly to the spleen lymphcytes in vitro and the assay was completed and results interpreted. Alternatively. the mice may be treated in vivo with the compounds of this invention by intraperitoneal multi-dose schedules, followed by sacrifice and harvesting spleen lymphocytes. These cells were then tested for their response to polyclonal mitogens or specific antigens used to immunize the mice. In this system however, no additional compound was added to the in vitro lymphocyte stimulation assay system.

Assay [3] relates to human lymphocytes. In words: In vitro lymphocyte stimulation assay, human lymphocytes. The assay is classed as cell-based. Further details: key to Lymphocyte Stimulation Index PHA / Lymphocyte Stimulation Index Con-A: ratio of cpm of mitogen-stimulated to non-mitogen control group (LSI). The note with it: for Lymphocyte Stimulation Index Con-A / Lymphocyte Stimulation Index PHA: human, Table 6-A. The protocol:
as §1, §2, §3
Lymphocytes isolated from 5 human volunteers were treated in vitro with PHA and Con-A and either 10^2, 10^3, 10^4, 5 x 10^4 or 10^5 ng/well of Cpd. 1, 10^2, 10^3, 10^4, 5 x 10^4, or 10^5 ng/well of AA, or buffer.

In assay [4] the test system is spleen lymphocytes. The assay can be described thus: In vitro lymphocyte stimulation assay, C57BL/6 spleen lymphocytes. The assay is classed as cell-based, mice. As to conditions: for effect on response of the lymphocytes to PHA and Con-A: C57BL/6 spleen cells in vitro, Example 19. The method, then: as §1, §2, §3
Setting [5] is: 1.04x10^3 ng/well in vitro, C57BL/6, Table 12-A.
Setting [6] is: 1.66x10^4 ng/well in vitro, C57BL/6, Table 12-A.
Where [7] appears, read: 2.08x10^3 ng/well in vitro, C57BL/6, Table 12-A.
Setting [8] is: 4.15x10^3 ng/well in vitro, C57BL/6, Table 12-A.
Where [9] appears, read: 8.3x10^3 ng/well in vitro, C57BL/6, Table 12-A.
The mark [10] stands for this setting: 1.392x10^4 ng/well, C57BL/6, Table 12-B.
Where [11] appears, read: 1.74x10^3 ng/well, C57BL/6, Table 12-B.
The mark [12] stands for this setting: 3.48x10^3 ng/well, C57BL/6, Table 12-B.
[13] abbreviates: 6.96x10^3 ng/well, C57BL/6, Table 12-B.
The mark [14] stands for this setting: 8.7x10^2 ng/well, C57BL/6, Table 12-B.

Each structure is given as a SMILES string.

`O=c1[nH]cc(F)c(=O)[nH]1` [5-FU, 5-fluorouracil]: in assay [1], the “Median Survival Time” value is 30 and the T/C came to 1.50.
In the case of `O=C1O[C@H]([C@@H](O)CO)C(O)=C1O` [AA, ascorbic acid], in assay [2] (50 mg/kg i.p. 4 days, C57BL/6), the “effect on lymphocyte response, Con-A stimulated group” value was “single stimulation of proliferation”. Moreover, the “Lymphocyte Stimulation Index Con-A” value in assay [2] (50 mg/kg i.p. 4 days) was 25.5; in assay [2] (100 mg/kg i.p. 4 days), 19.8; in assay [2] (200 mg/kg i.p. 4 days) it was 21.1; in assay [2] (400 mg/kg i.p. 4 days), 17.8; in assay [2] (800 mg/kg i.p. 4 days), 23.9; in assay [3] (5x10^4 ng/well in vitro), 23.31. Further, the “Lymphocyte Stimulation Index Con-A” value in assay [3] (10^2 ng/well in vitro) came out at 24.37; in assay [3] (10^3 ng/well in vitro) it was 24.76; in assay [3] (10^4 ng/well in vitro), 27.35; in assay [3] (10^5 ng/well in vitro), 25.18. Besides, the “Lymphocyte Stimulation Index Control” value in assay [2] (50 mg/kg i.p. 4 days) is 0.56; in assay [2] (100 mg/kg i.p. 4 days) it was 1.8; in assay [2] (200 mg/kg i.p. 4 days), 1.3; in assay [2] (400 mg/kg i.p. 4 days), 1.3; in assay [2] (800 mg/kg i.p. 4 days) it was 0.50. Besides, the “Lymphocyte Stimulation Index PHA” value in assay [2] (50 mg/kg i.p. 4 days) turned out to be 17.1; in assay [2] (100 mg/kg i.p. 4 days) it was 17.1; in assay [2] (200 mg/kg i.p. 4 days) it was 10.0; in assay [2] (400 mg/kg i.p. 4 days), 14.3; in assay [2] (800 mg/kg i.p. 4 days), 12.1; in assay [3] (5x10^4 ng/well in vitro) it was 35.93. In addition, the “Lymphocyte Stimulation Index PHA” value in assay [3] (10^2 ng/well in vitro) amounted to 38.29; in assay [3] (10^3 ng/well in vitro) it was 34.69; in assay [3] (10^4 ng/well in vitro), 35.10; in assay [3] (10^5 ng/well in vitro) it was 34.23. For the same compound, the “effect on lymphocyte response with PHA” value in assay [2] (50-800 mg/kg i.p. 4 days, C57BL/6) is recorded as “No statistically significant measureable effect”. The “proliferative or anti-proliferative effect, PHA and Con-A” value in assay [3] (10^2 to 10^5 ng/well, human lymphocytes in vitro) was “no significant proliferative or anti-proliferative effect”.
In the case of `O=C(O)CCC(=O)O` [Succinic Acid, succinic acid], the “Lymphocyte Stimulation Index Con-A” value came out at 64.6 in assay [4] (setting [5]); 38.5 in assay [4] (setting [6]); 51.1 in assay [4] (setting [7]); 42.3 in assay [4] (setting [8]); 35.6 in assay [4] (setting [9]). Moreover, the “Lymphocyte Stimulation Index Control” value is on record as 0.94 in assay [4] (setting [5]); 1.1 in assay [4] (setting [6]); 1.0 in assay [4] (setting [7]); 0.91 in assay [4] (setting [8]); 0.91 in assay [4] (setting [9]). Also, the “Lymphocyte Stimulation Index PHA” value in assay [4] (setting [5]) is recorded as 15.7; in assay [4] (setting [6]), 11.5; in assay [4] (setting [7]), 15.3; in assay [4] (setting [8]), 14.0; in assay [4] (setting [9]) it was 12.4. The “effect on response of the lymphocytes to PHA and Con-A” value in assay [4] was “decrease in PHA and Con-A mitogenesis with increased succinic acid dosage”.
In the case of `O=C1CCC(=O)N1` [Succinimide, succinimide], the “Lymphocyte Stimulation Index Con-A” value in assay [4] (setting [10]) was 92.9; in assay [4] (setting [11]), 83.4; in assay [4] (setting [12]), 85.1; in assay [4] (setting [13]), 71.9; in assay [4] (setting [14]), 76.0. The “Lymphocyte Stimulation Index Control” value in assay [4] (setting [10]) came out at 1.4; in assay [4] (setting [11]), 1.1; in assay [4] (setting [12]), 0.98; in assay [4] (setting [13]) it was 1.1; in assay [4] (setting [14]), 0.91. Moreover, the “Lymphocyte Stimulation Index PHA” value in assay [4] (setting [10]) was found to be 17.1; in assay [4] (setting [11]), 17.5; in assay [4] (setting [12]) it was 18.1; in assay [4] (setting [13]), 17.2; in assay [4] (setting [14]), 19.5. For the same compound, in assay [4], the “effect on response of the lymphocytes to PHA and Con-A” value is listed as “no significant suppressive or enhancing effect”.
